PubChem BioAssay AID248 (DTP/NCI, 2004)
Values joined by “and” are separate entries in the source; they are usually repeats but may differ in a detail not shown here. Equal entries are not always repeated. Inconclusive results and toxic doses are left out. Rule as the data show it: active = T/C of 150% or more; inactive = T/C below 125%.

Tested on: L1210 leukemia ip in BDF1 mice, survival T/C
Assay: NCI In Vivo Anticancer Drug Screen. Data for tumor model L1210 Leukemia (intraperitoneal) in B6D2F1 (BDF1) mice
Settings: endpoint: mean survival time, higher = longer survival
In short: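 Read-out is survival time, reported as the treated-group measurement over the vehicle-control measurement.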

[1] = dose: 100.0 mg/kg/injection, schedule: Q01DX009 (ip), vehicle: Klucel (hydroxypropylcellulose) (HPC)
[2] = dose: 100.0 mg/kg/injection, schedule: Q04DX003 (ip), vehicle: Klucel (hydroxypropylcellulose) (HPC)
[3] = dose: 200.0 mg/kg/injection, schedule: Q01DX009 (ip), vehicle: Klucel (hydroxypropylcellulose) (HPC)
[4] = dose: 200.0 mg/kg/injection, schedule: Q04DX003 (ip), vehicle: Klucel (hydroxypropylcellulose) (HPC)
[5] = dose: 400.0 mg/kg/injection, schedule: Q04DX003 (ip), vehicle: Klucel (hydroxypropylcellulose) (HPC)
[6] = dose: 100.0 mg/kg/injection, schedule: Q01DX001 (ip), vehicle: saline
[7] = dose: 200.0 mg/kg/injection, schedule: Q01DX001 (ip), vehicle: saline
[8] = dose: 400.0 mg/kg/injection, schedule: Q01DX001 (ip), vehicle: saline
[9] = dose: 100.0 mg/kg/injection, schedule: Q01DX001 (ip), vehicle: Klucel (hydroxypropylcellulose) (HPC)
[10] = dose: 200.0 mg/kg/injection, schedule: Q01DX001 (ip), vehicle: Klucel (hydroxypropylcellulose) (HPC)
[11] = dose: 100.0 mg/kg/injection, schedule: Q01DX001 (ip), vehicle: saline with Tween-80
[12] = dose: 100.0 mg/kg/injection, schedule: Q04DX003 (ip), vehicle: saline with Tween-80
[13] = dose: 200.0 mg/kg/injection, schedule: Q04DX003 (ip), vehicle: saline with Tween-80
[14] = dose: 400.0 mg/kg/injection, schedule: Q04DX003 (ip), vehicle: saline with Tween-80
[15] = dose: 100.0 mg/kg/injection, schedule: Q01DX009 (ip), vehicle: saline
[16] = dose: 400.0 mg/kg/injection, schedule: Q01DX009 (ip), vehicle: Klucel (hydroxypropylcellulose) (HPC)

Measured: T/C

CN(C)c1ccc2c(c1)C(Br)c1ccccc1-2 (centres undefined)
inactive: [1] 106 % of control | [2] 94 % of control | [3] 107 % of control | [4] 96 % of control | [5] 97 % of control

O/N=C(/CBr)c1ccccc1
inactive: dose: 12.5 mg/kg/injection, schedule: Q04DX002 (ip), vehicle: gum acacia 109 % of control | dose: 25.0 mg/kg/injection, schedule: Q04DX002 (ip), vehicle: gum acacia 87 % of control | dose: 50.0 mg/kg/injection, schedule: Q04DX002 (ip), vehicle: gum acacia 102 % of control

N#CCN(CC#N)CCCN(CC#N)CCCN(CC#N)CC#N
inactive: dose: 12.5 mg/kg/injection, schedule: Q01DX001 (ip), vehicle: saline with Tween-80 97 % of control | dose: 25.0 mg/kg/injection, schedule: Q01DX001 (ip), vehicle: saline with Tween-80 108 % of control | dose: 50.0 mg/kg/injection, schedule: Q01DX001 (ip), vehicle: saline with Tween-80 102 % of control

Brc1ccc2[nH]c3c(c2c1)CCCC3
inactive: [6] 87 % of control | [7] 89 % of control | [8] 98 % of control

O=C(COc1ccc(Cl)c(Cl)c1)Nc1ccc[n+](Cc2ccc(S(=O)(=O)F)c(Cl)c2)c1
inactive: [2] 98 % of control | [4] 93 % of control | [5] 97 % of control

CCCOc1cccc(C(=N)N)c1
inactive: dose: 75.0 mg/kg/injection, schedule: Q01DX001 (ip), vehicle: Klucel (hydroxypropylcellulose) (HPC) 97 % of control | dose: 150.0 mg/kg/injection, schedule: Q01DX001 (ip), vehicle: Klucel (hydroxypropylcellulose) (HPC) 96 % of control | dose: 300.0 mg/kg/injection, schedule: Q01DX001 (ip), vehicle: Klucel (hydroxypropylcellulose) (HPC) 96 % of control

CCC(CN)(c1cccs1)c1cccs1
inactive: [9] 87 % of control | [10] 97 % of control | dose: 400.0 mg/kg/injection, schedule: Q01DX001 (ip), vehicle: Klucel (hydroxypropylcellulose) (HPC) 103 % of control

O=C(NC(=O)c1ccccc1)C(=O)c1ccccc1
inactive: [11] 94 % of control | dose: 200.0 mg/kg/injection, schedule: Q01DX001 (ip), vehicle: saline with Tween-80 105 % of control | dose: 400.0 mg/kg/injection, schedule: Q01DX001 (ip), vehicle: saline with Tween-80 87 % of control

O=S1(=O)N=C(c2ccccc2)CC(c2ccccc2)N1 (centres undefined)
inactive: dose: 25.0 mg/kg/injection, schedule: Q01DX009 (ip), vehicle: saline with Tween-80 87 % of control | dose: 50.0 mg/kg/injection, schedule: Q01DX009 (ip), vehicle: saline with Tween-80 96 % of control | dose: 50.0 mg/kg/injection, schedule: Q04DX003 (ip), vehicle: saline with Tween-80 98 % of control | dose: 100.0 mg/kg/injection, schedule: Q01DX009 (ip), vehicle: saline with Tween-80 94 % of control | [12] 93 % of control | dose: 200.0 mg/kg/injection, schedule: Q01DX009 (ip), vehicle: saline with Tween-80 93 % of control | [13] 86 % of control

O=C(Nc1ccc(NS(=O)(=O)c2ccccc2)cc1Cl)c1ccccc1
inactive: dose: 50.0 mg/kg/injection, schedule: Q01DX001 (ip), vehicle: Klucel (hydroxypropylcellulose) (HPC) 104 % of control | [9] 108 % of control | [10] 90 % of control

O=C(CCCN1CCC2(CC1)C(=O)NCN2c1ccccc1)c1ccccc1
inactive: dose: 10.0 mg/kg/injection, schedule: Q04DX003 (ip), vehicle: Klucel (hydroxypropylcellulose) (HPC) 96 % of control | dose: 20.0 mg/kg/injection, schedule: Q04DX003 (ip), vehicle: Klucel (hydroxypropylcellulose) (HPC) 98 % of control | dose: 40.0 mg/kg/injection, schedule: Q04DX003 (ip), vehicle: Klucel (hydroxypropylcellulose) (HPC) 101 % of control

CC12CCC(C(C(=O)O)C1=O)C2(C)C (centres undefined)
inactive: [12] 103 % of control | [13] 97 % of control | [14] 100 % of control

O=C1OC(=O)C2C3OC(C(Br)C3Br)C12 (centres undefined)
inactive: dose: 16.0 mg/kg/injection, schedule: Q04DX003 (ip), vehicle: saline 100 % of control | dose: 37.5 mg/kg/injection, schedule: Q04DX003 (ip), vehicle: saline 95 % of control | dose: 50.0 mg/kg/injection, schedule: Q04DX003 (ip), vehicle: saline 101 % of control | dose: 100.0 mg/kg/injection, schedule: Q04DX003 (ip), vehicle: saline 100 % of control and 90 % of control

O=c1cc(-c2ccc(S(=O)(=O)F)cc2)[nH]c2ccc([N+](=O)[O-])cc12
inactive: [15] 101 % of control | dose: 200.0 mg/kg/injection, schedule: Q01DX009 (ip), vehicle: saline 101 % of control | dose: 400.0 mg/kg/injection, schedule: Q01DX009 (ip), vehicle: saline 100 % of control

CNC(=O)O/N=C(C)/C(C)=N/OC(=O)NC
inactive: dose: 100.0 mg/kg/injection, schedule: Q01DX001 (ip), vehicle: other 93 % of control | dose: 200.0 mg/kg/injection, schedule: Q01DX001 (ip), vehicle: other 87 % of control | dose: 400.0 mg/kg/injection, schedule: Q01DX001 (ip), vehicle: other 87 % of control

CCCOC(=O)COc1ccc(Cl)cc1C
inactive: [2] 96 % of control | [4] 96 % of control | [5] 91 % of control

NC(CCCCNC(c1ccccc1)(c1ccccc1)c1ccccc1)C(=O)O (centres undefined)
inactive: dose: 12.5 mg/kg/injection, schedule: Q01DX009 (ip), vehicle: saline 102 % of control | dose: 25.0 mg/kg/injection, schedule: Q01DX009 (ip), vehicle: saline 101 % of control | dose: 50.0 mg/kg/injection, schedule: Q01DX009 (ip), vehicle: saline 101 % of control | [15] 97 % of control

CN(C)C1CCC(Nc2nc(Nc3cc(Cl)cc(Cl)c3)nc3ccccc23)CC1 (centres undefined)
inactive: [11] 95 % of control

COc1ccc(OC)c(NC(=S)NC(=O)c2cccc([N+](=O)[O-])c2)c1
inactive: [1] 106 % of control | [2] 120 % of control | [3] 106 % of control | [4] 100 % of control | [16] 94 % of control | [5] 97 % of control

NC(CS)C(=O)O (centres undefined)
inactive: [6] 105 % of control | [7] 92 % of control | dose: 250.0 mg/kg/injection, schedule: Q01DX Z (ip), vehicle: other 91 % of control | dose: 250.0 mg/kg/injection, schedule: Q01DX Z (ip), vehicle: saline 102 % of control | [8] 97 % of control | dose: 500.0 mg/kg/injection, schedule: Q01DX Z (ip), vehicle: saline 94 % of control | dose: 1000.0 mg/kg/injection, schedule: Q01DX Z (ip), vehicle: saline 112 % of control

CN(C)CCNc1cc([N+](=O)[O-])ccc1[N+](=O)[O-]
inactive: [6] 105 % of control

CC(=O)Nc1ccc([N+](=O)[O-])c(NC(C)=O)n1
inactive: [1] 103 % of control | [12] 101 % of control | [3] 100 % of control | [13] 93 % of control | [16] 97 % of control | [14] 112 % of control

CC(C)(CO)N=Cc1ccc(O)cc1O
inactive: dose: 100.0 mg/kg/injection, schedule: Q01DX001 (ip), vehicle: carboxymethylcellulose (CMC) 96 % of control | dose: 200.0 mg/kg/injection, schedule: Q01DX001 (ip), vehicle: carboxymethylcellulose (CMC) 93 % of control | dose: 400.0 mg/kg/injection, schedule: Q01DX001 (ip), vehicle: carboxymethylcellulose (CMC) 91 % of control

CC(C)CCCC(C)C1CCC2C3CC=C4CC(OCCO)CCC4(C)C3CCC12C (centres undefined)
inactive: dose: 100.0 mg/kg/injection, schedule: Q01DX009 (ip), vehicle: other 87 % of control | dose: 200.0 mg/kg/injection, schedule: Q01DX009 (ip), vehicle: other 105 % of control

O=C1OC(=O)c2ccc([N+](=O)[O-])c3c(C(=O)O)ccc1c23
inactive: dose: 50.0 mg/kg/injection, schedule: Q01DX001 (ip), vehicle: saline 101 % of control | [6] 104 % of control | [7] 104 % of control | [8] 104 % of control

O=C1OC(=O)C2C3C=CC(CC12)O3 (centres undefined)
inactive: dose: 6.25 mg/kg/injection, schedule: Q01DX009 (ip), vehicle: saline with Tween-80 97 % of control | dose: 6.25 mg/kg/injection, schedule: Q04DX003 (ip), vehicle: saline with Tween-80 96 % of control | dose: 12.5 mg/kg/injection, schedule: Q01DX009 (ip), vehicle: saline with Tween-80 97 % of control | dose: 12.5 mg/kg/injection, schedule: Q04DX003 (ip), vehicle: saline with Tween-80 91 % of control | dose: 25.0 mg/kg/injection, schedule: Q04DX003 (ip), vehicle: saline with Tween-80 94 % of control
